pIC50: −log10 of the molar value.

The first series concerns Human immunodeficiency virus 1. As to the kind of experiment: Antiviral activity against HIV1 infected in human MT4 cells assessed as protection against virus-induced cytopathic effect. The following applies: Human immunodeficiency virus 1, MT4. The format is functional, organism-based.
In the case of `Nc1ncnc2c1ncn2[C@H]1C=C[C@@H](OCP(=O)(O)O)O1`, the pIC50 is 5.82.
For `C#C[C@@]1(OCP(=O)(O)O)C=C[C@H](n2cnc3c(N)ncnc32)O1`, the pIC50 is 5.77.
Take `Cc1cn([C@H]2C=C[C@@H](CO)O2)c(=O)[nH]c1=O` [STAVUDINE]: the pIC50 was 5.92.
Still for that read-out and setting: the value for `C#C[C@@]1(OCP(=O)(O)O)C=C[C@H](n2cc(C)c(=O)[nH]c2=O)O1` was less than 4.00; that for `Cc1cn([C@H]2C=C[C@@H](OCP(=O)(O)O)O2)c(=O)[nH]c1=O` was 4.92.

Tested on in a further series: not listed separately
As to the kind of experiment: Cytotoxicity against human MT4 cells assessed as reduction of cell viability.
Conditions: not given
The format is cell-based.
Turning to `Nc1ncnc2c1ncn2[C@H]1C=C[C@@H](OCP(=O)(O)O)O1`, the CC50 was greater than 600 µM.
On the same count and under the same terms, the value for `C#C[C@@]1(OCP(=O)(O)O)C=C[C@H](n2cnc3c(N)ncnc32)O1` was greater than 100 µM.
Turning to `Cc1cn([C@H]2C=C[C@@H](CO)O2)c(=O)[nH]c1=O` [STAVUDINE], the CC50 is greater than 600 µM.
Still for that read-out and setting: the figure for `C#C[C@@]1(OCP(=O)(O)O)C=C[C@H](n2cc(C)c(=O)[nH]c2=O)O1` is greater than 100 µM.
The same measure, in the same setting: the figure for `Cc1cn([C@H]2C=C[C@@H](OCP(=O)(O)O)O2)c(=O)[nH]c1=O` is greater than 600 µM.

For the origin of these results see ChEMBL document CHEMBL1250548, “Synthesis and anti-HIV-1 evaluation of phosphonates which mimic the 5'-monophosphate of 4'-branched 2',3'-didehydro-2',3'-dideoxy nucleosides” (Bioorg Med Chem, 2010).
